Experimental data published in patent US4587359A, “Amine-carbamoylborane adducts” (The United States of America as represented by the Secrtary …, priority 1984, dated 1986).
Where two headings read alike, the source gives them in different places.

Assays:
[1] = system: Ehrlich ascites cells; assay: Ehrlich Ascites tumor screen for antineoplastic activity; type: in vivo; settings: 20 mg/kg/day intraperitoneally, days 1-9; CF male mice; day 10
Protocol: Use of compounds according to this invention in Ehrlich Ascites tumor screens for antineoplastic activity has been investigated.
CF male mice (~25 g) were inoculated intraperitoneally on day 0 with 2×10^6 Ehrlich ascites cells. Compositions containing compounds of this invention were prepared in 0.05% polysorbate 80 by homogenation and injected intraperitoneally on days 1-9 at 20 mg/kg/day. On day 10, the mice were sacrificed and the cells from the peritoneal cavity harvested. The total ascites tumor and packed cell (ascrit) volumes were determined and used to calculate the percent inhibition according to the procedure described in C. Piantadosi et al., J. Pharm. Sci., 58, p. 821 (1969). […] Mercaptopurine and mephalan were used as positive controls in the screen. Other pharmaceutically acceptable carriers, diluents, adjuvants or dosages are readily ascertainable by the skilled artisan.

[2] = Thermal stability / vacuum distillation; type: physicochemical; settings: for thermal stability: higher temperature (>100° C.); for decomposition when subjected to vacuum distillation: oil-bath temperatures >100° C.
Protocol: The parent compound 1, trimethylamine-(ethylcarbamoyl)borane was prepared as previously described in B. F. Spielvogel et al., J. Am. Chem. Soc., 98 p. 5702 (1976) and I. H. Hall et al., J. Pharm. Sci., 68, p. 685 (1979) by refluxing (under dry N2) a solution of Me3 N.BH2 CN in CH2 Cl2 with 2 equivalents of triethyloxonium tetrafluoroborate for 24 hours. The compounds Me3 N.BH2 CN and triethyloxonium tetrafluoroborate are referred to in P. Wisian-Neilson et al., Inorg. Chem. 17, p. 2327 (1978) and H. Meerwein, Org. Synth., 46, p. 113 (1966), respectively. The resulting ethylnitrilium salt (not isolated) was hydrolyzed at 0° C. with 1N NaOH until basic and finally purified by vacuum distillation, giving a 75% yield. Dimethylamine-(ethylcarbamoyl)borane was made from 1 by a (CH3)2NH-exchange reaction in a pressure-glass vessel at room temperature for 8 days, and ca. 80% conversion (by ^1 H NMR) was obtained. Longer reaction periods (2-3 weeks) gave similar results. Amide 2 is readily purified by washing a CH2 Cl2 solution of the crude mixture with a small quantity of water whereby 1 is removed. The bulk CH2 Cl2 solution containing the product was dried, and rotary evaporation of the solvent gave 78% yield. Finally, the product was distilled under reduced pressure to get an analytical sample. […] The methylamine-(ethylcarbamoyl)borane and ammonia-(ethylcarbamoyl)borane were similarly prepared from 1 by exchange reactions with CH3 NH2 and NH3, respectively, in a glass pressure reaction vessel at room temperature for 1 week. The crude amide was purified by recrystallization from CH2 Cl2 /pentane, giving a 65% yield, whereas the ammonia analogue was recrystallized from distilled water, giving a 60% yield.

[3] = in mice; cited from earlier work
[4] = system: tumor; settings: in mice; cited from earlier work
[5] = Toxicity in BALB/C mice; type: in vivo
[6] = Solubility
[7] = Tissue distribution study of boron (boron neutron capture therapy); type: in vivo, BALB/c mice; settings: mouse, ip, 40 mg/kg, single saline i.p. injection, 40 μg boron per gram body weight; for concentration at 1 h: 1 hr post injection
Protocol: (§1) In a tissue distribution study relating to treatment of tumor tissue in an animal by boron neutron capture therapy, a representative compound of this invention MeNH2.BH2 C(O)NHEt was administered in a single saline intraperitoneal injection sufficient to provide 40 μg boron per gram body weight to BALB/c mice carrying Harding-Passey melanorna.

[8] = system: Harding-Passey melanorna; assay: as above; type: in vivo, BALB/c mice; settings: for Boron uptake, blood / Boron uptake, brain / Boron uptake, tumor: single saline i.p. injection, 40 μg boron per gram body weight
Protocol: as §1

[9] = animal model studies; cited from earlier work
[10] = animal model studies; cited from earlier work; remark: listed apart in the source
[11] = 1 hr post injection, 40 mg/kg, 60 min

Compound: CCNC(=O)[BH2-][NH+](C)C [Me2 NH.BH2 C(O)NHEt, Dimethylamine-(Ethylcarbamoyl)borane]
- percent inhibition (ascites tumor and packed cell volumes) [1]: 72.2%
- thermal stability [2]: thermally unstable
- decomposition when subjected to vacuum distillation [2]: considerable decomposition

Compound: C[N+](C)(C)[BH2-]C(=O)O [Me3 N.BH2 COOH]
- antihyperlipidemic activity [3]: significant
- antitumor activity [4]: significant

Compound: CCNC(=O)[BH2-][NH2+]C [MeNH2.BH2 C(O)NHEt, Methylamine-(ethylcarbamoyl)borane]
- toxicity [5]: not toxic
- percent inhibition (ascites tumor and packed cell volumes) [1]: 91%
- solubility [6]: good
- concentration at 1 h ([7]; blood, read-out: Boron uptake, blood): 54800 ng/g
- concentration at 1 h ([7]; brain, read-out: Boron uptake, brain): 45300 ng/g
- concentration at 1 h ([7]; tumor, read-out: Boron uptake, tumor): 51300 ng/g
- concentration at 12 h ([7]; tumor, 12 hr post injection, read-out: Boron uptake, tumor): 3800 ng/g
- Boron uptake, blood [8, 11]: 54.4 μg B per gram tissue
- Boron uptake, brain [8, 11]: 39.8 μg B per gram tissue
- Boron uptake, tumor [8, 11]: 48.7 μg B per gram tissue
- Boron uptake, blood ([8]; 12 hr post injection): 0 μg B per gram tissue
- Boron uptake, brain ([8]; 12 hr post injection): 0 μg B per gram tissue
- Boron uptake, tumor ([8]; 12 hr post injection, 40 mg/kg, 720 min): 2.8 μg B per gram tissue
- uptake for conventional therapy, measured against the standard in clinical use Na2 B12 H11 SH ([8]; in words): inadequate
- concentration of the boron-containing compound in the tumor tissue ([8]; in words, BALB/c mice): some preferential differential concentration

Compound: CCNC(=O)[BH2-][N+](C)(C)C [Trimethylamine-(ethylcarbamoyl)borane, Trimethylamine-(Ethylcarbamoyl)borane]
- antiarthritic activity [9]: significant
- antiinflammatory activity [10]: significant
- antihyperlipidemic activity [3]: significant
- antitumor activity [4]: significant
- thermal stability [2]: thermally unstable
- decomposition when subjected to vacuum distillation [2]: considerable decomposition
